Data published in patent US20260083924A1, “CAPSULE INHALER FOR THE ADMINISTRATION OF A PHOSPHODIESTERASE-4 INHIBITOR” (CHIESI FARMACEUTICI S.P.A., priority 2022, published 2026).

Columns and labels:
[1] = inhalation; multi-dose Nexthaler vs single-dose Aerolizer; cited from earlier work
[2] = In vitro dissolution test (RespiCell) on fine fraction collected by Fast Screening Impactor; format: physicochemical; conditions: FIG. 3; 800 μg dose, HR RS01 or UHR RS01 vs Nexthaler; PBS with 0.5% SDS, 37 °C
Description: In vitro dissolution tests were carried out to compare the performance of the Reference Products and the drug product of the invention at 800 μg, using RespiCell™ (EU registration No 006649570-0001), a vertical diffusion cell apparatus that comprises a 170 cm^3 reservoir filled with the dissolution media and a side arm of 10 cm length. The apparatus is composed of an upper part, the donor chamber, and a lower part, the receptor chamber, linked by a clamp and separated by a glass fiber filter, used as diffusion membrane, and sit horizontally in contact with the dissolution medium. The receptor chamber contains a magnetic stirrer inside it. Type A/E glass fiber filter of 76 mm diameter (PALL Corporation, Port Washington; NY, USA) were employed as diffusion membrane. The dissolution medium employed for the analysis was phosphate-buffer saline (PBS) with 0.5% of Sodium dodecyl sulfate (SDS). RespiCell™ was connected to a heating thermostat (Lauda eco silver E4, DE) set at 37±0.5° C. […] The amount of drug in the samples was assessed by HPLC. The data were expressed as percentage of the compound of formula (I) dissolved and 100% of the dissolution corresponded to the drug amount dissolved at the end of experiment. […] The difference factor (f1) is calculated as follows: […]

In the case of CS(=O)(=O)Nc1ccc(C(=O)O[C@@H](Cc2c(Cl)c[n+]([O-])cc2Cl)c2ccc(OC(F)F)c(OCC3CC3)c2)cc1OCC1CC1 [compound of formula (I), 3,5-dichloro-4-[(2S)-2-[3-(cyclopropylmethoxy)-4-(difluoromethoxy)phenyl]-2-{[3-(cyclopropylmethoxy)-4-(methanesulfonamido)benzoyl]oxy}ethyl]pyridinel-oxide], the “weighted AUC systemic bioavailability, higher via Nexthaler than via Aerolizer” value [1] is listed as “about 30%” and the “amount of the compound of formula (I) dissolved, higher in comparison to the Reference Product” value [2] is listed as 7-20%.
